# From US10392383B2, “3-(1H-benzo[d]imidazol-2-yl)-1H-pyrazolo[4,3-b]pyridines and therapeutic uses thereof” (Samumed, LLC, priority 2015, dated 2019)
# Assays:
# [1] = tested on: IL-6 (THP-1 cells); test: IL-6 inhibition in LPS-stimulated THP-1 monocytes (HTRF); format: cell-based; conditions: Homo sapiens, 500 ng/mL LPS, IL-6 HTRF, Table 6
# Outline: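 THP-1 cells in 1% FBS pre-incubated 2 h with compound (10-point 1:3 series from 10 μM, 0.1% DMSO), then stimulated with 500 ng/mL LPS for 22 h at 37 °C. IL-6 measured by HTRF 665/620 ratio, normalized to DMSO; EC50 by four-parameter fit, or % inhibition at 10 μM when EC50 >10 μM.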
# [2] = tested on: Wnt activity (Sp5-Luc reporter, Wnt-responsive promoter) in SW480 colon carcinoma cells; test: Wnt activity screening assay: Sp5-Luc reporter gene assay in SW480 cells; format: cell-based; conditions: Homo sapiens, overnight incubation, 10-point curve starting from 10 μM
# Outline: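 SW480 cells stably transduced with an Sp5 promoter (eight TCF/LEF sites)–firefly luciferase lentiviral reporter, plated at 4,000 cells/well in 1% FBS medium with compounds (10-point 1:3 series from 10 μM, 0.1% DMSO) overnight at 37 °C. BrightGlo luminescence normalised to DMSO; EC50 by four-parameter fit, else % inhibition at 10 μM.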
SMILES,EC50 [1] [µM],EC50 [2] [µM]
"CS(=O)(=O)NCc1cc(F)cc(-c2cccc3[nH]c(-c4n[nH]c5ccc(-c6cncnc6)nc45)nc23)c1 [Compound 503, N-(3-Fluoro-5-(2-(5-(pyrimidin-5-yl)-1H-pyrazolo[4,3-b]pyridin-3-yl)-1H-benzo[d]imidazol-4-yl)benzyl)methanesulfonamide]",3.71,2.89
"CC(C)CC(=O)Nc1cncc(-c2ccc3[nH]nc(-c4nc5c(-c6cccc(F)c6)cccc5[nH]4)c3n2)c1 [Compound 2, N-(5-(3-(4-(3-Fluorophenyl)-1H-benzo[d]imidazol-2-yl)-1H-pyrazolo[4,3-b]pyridin-5-yl)pyridin-3-yl)-3-methylbutanamide]",6.69,1.16
"c1cc(N2CCCCC2)c2nc(-c3n[nH]c4ccc(-c5cncc(OCCN6CCCC6)c5)nc34)[nH]c2c1 [Compound 610, 3-(4-(Piperidin-1-yl)-1H-benzo[d]imidazol-2-yl)-5-(5-(2-(pyrrolidin-1-yl)ethoxy)pyridin-3-yl)-1H-pyrazolo[4,3-b]pyridine]",0.695,3.05
"Oc1cncc(-c2ccc3[nH]nc(-c4nc5c(-c6cccnc6)cccc5[nH]4)c3n2)c1 [Compound 565, 5-(3-(4-(Pyridin-3-yl)-1H-benzo[d]imidazol-2-yl)-1H-pyrazolo[4,3-b]pyridin-5-yl)pyridin-3-ol]",0.232,1.45

# Further molecules by falling EC50 [1], results first:
EC50 [1] [µM],EC50 [2] [µM],SMILES
6.38,1.24,"Cc1cn(-c2cccc3[nH]c(-c4n[nH]c5ccc(-c6cncc(NC(=O)C(C)(C)C)c6)nc45)nc23)cn1 [Compound 204, N-(5-(3-(4-(4-Methyl-1H-imidazol-1-yl)-1H-benzo[d]imidazol-2-yl)-1H-pyrazolo[4,3-b]pyridin-5-yl)pyridin-3-yl)pivalamide]"
4.26,2.82,"CN(C)CCNc1cc(F)cc(-c2cccc3[nH]c(-c4n[nH]c5ccc(-c6cncc(CNCC7CCCC7)c6)nc45)nc23)c1 [Compound 473, N^1-(3-(2-(5-(5-(((Cyclopentylmethyl)amino)methyl)pyridin-3-yl)-1H-pyrazolo[4,3-b]pyridin-3-yl)-1H-benzo[d]imidazol-4-yl)-5-fluorophenyl)-N^2,N^2-dimethylethane-1,2-diamine]"
1.34,2.34,"CS(=O)(=O)NCc1cc(F)cc(-c2cccc3[nH]c(-c4n[nH]c5ccc(-c6cncc(CNCc7ccccc7)c6)nc45)nc23)c1 [Compound 500, N-(3-(2-(5-(5-((Benzylamino)methyl)pyridin-3-yl)-1H-pyrazolo[4,3-b]pyridin-3-yl)-1H-benzo[d]imidazol-4-yl)-5-fluorobenzyl)methanesulfonamide]"
